Reference: publication PMC9045377, “CpxA Phosphatase Inhibitor Activates CpxRA and Is a Potential Treatment for Uropathogenic Escherichia coli in a Murine Model of Infection” (Microbiology Spectrum, 2022)

Tests used:
[1] = tested on: UPEC strain CFT073; format: in vivo, Escherichia coli (in female CBA/J mice); conditions: compound 6 trial
Procedure: Four groups of eight female CBA/J mice were transurethrally inoculated with a target dose of ∼10^8 CFU of either CFT073 or CFT073ΔcpxA::cat. One group was treated with ciprofloxacin (2.5 mg/kg/dose dissolved in sterile distilled water) s.c. 12, 24, 36, 48, and 60 h after inoculation with CFT073 as described ([31]). The untreated CFT073 and CFT073ΔcpxA::cat inoculated groups were given the vehicle control s.c. at 12, 24, 36, 48, and 60 h after inoculation. The compound 6 treated group were given the drug (100 mg/kg) s.c. at 12, 36, and 60 h after inoculation with CFT073 and received the vehicle control s.c. at 24 and 48 h. The animals were sacrificed 4 h after the last treatment (64 h postinoculation) and CFU per milliliter or CFU per gram of tissue was determined in the urine, bladder, and kidneys.
Animal experiments were conducted according to the guidelines of the University of Michigan Institutional Animal Care and Use Committee. For the animal infection experiments, bacterial strains were cultured at 37°C in LB medium overnight with shaking ([30]). Female CBA/J mice (Jackson Laboratories, Bar Harbor, ME) were inoculated transurethrally with a target dose of ∼10^8 CFU of CFT073 or CFT073ΔcpxA::cat. Mice were subsequently treated 12 h later either with the vehicle, ciprofloxacin hydrochloride (PanReac AppliChem ITW Reagents; Jade Scientific), compound 1, compound 6, or compound 26 as described in Results and euthanized 4 h after the last treatment. Bacterial loads of each strain were calculated from the urine, bladder, and kidneys of mice as previously described; the limits of detection for these assays were 100 CFU/mL or 100 CFU/g of urine and tissue, respectively ([33]). Values of 50 CFU/mL or 50 CFU/g were assigned to specimens whose yields were below the limit of detection.
Due to the extreme skewness of the data, natural log transformation was used before the data were analyzed statistically. Descriptive statistics were calculated for all of the log-transformed variables. Statistical comparisons were done using analysis of variance (ANOVA) with follow-up pairwise tests adjusted for multiple comparisons using the Tukey procedure.

[2] = tested on: HepG2 cells; test: Cytotoxicity by LDH release in HepG2 cells; format: cell-based; conditions: 0 to 160 μM
Procedure: E. coli strain CFT073 and its derivative CFT073ΔcpxA::cat were described previously and maintained on Luria broth (LB) plates at 37°C ([30]). The E. coli PcpxP′-lacZ reporter strain, PAD282, was the gift of Thomas Silhavy (Princeton University, Princeton, NJ, USA) and was maintained on TB plates at 37°C ([31]). HepG2 hepatocellular carcinoma cells were the gift of Andy Yu (Indiana University, Indianapolis, IN) and were grown in RPMI […] medium (Gibco) containing 10% fetal calf serum (HyClone) and 1 mM sodium pyruvate (Sigma) at 37°C with 5% CO2 as described ([31]).
The cytotoxicity of compound 6 for HepG2 cells was determined by LDH release after incubation with the compound in concentrations ranging from 0 to 160 μM for 5 h and 24 h exactly as described ([31]). The IC50 was determined from quadruplicate experiments by the GraphPad Prism 6 software using a nonlinear fit model.

NC1CCCc2c1[nH]c1ccc(F)cc21 (centres unmarked) [compound 6]
CFU of CFT073 recovered in urine vs CFT073-inoculated vehicle control ([1]; 8 mice/group, compound 6 100 mg/kg s.c. at 12, 36, 60 h, ciprofloxacin 2.5 mg/kg/dose s.c. at 12, 24, 36, 48, 60 h, sacrifice 64 h): no effect | CFU of CFT073 recovered in bladder vs CFT073-inoculated vehicle control ([1]; same regimens): no effect | CFU of CFT073 recovered in kidneys vs CFT073-inoculated vehicle control ([1]; same regimens): no effect | IC50, LDH release ([2]; 5 h incubation): could not be calculated | IC50 ([2]; Homo sapiens, 24 h incubation): > 33 µM
